The target of the assay is CGL2 (Coprinopsis cinerea, UniProt Q9P4R8). The assay can be described thus: biochemical.

SMILES strings stand for the structures.

Sequence of CGL2 (Q9P4R8 whole entry, looked up): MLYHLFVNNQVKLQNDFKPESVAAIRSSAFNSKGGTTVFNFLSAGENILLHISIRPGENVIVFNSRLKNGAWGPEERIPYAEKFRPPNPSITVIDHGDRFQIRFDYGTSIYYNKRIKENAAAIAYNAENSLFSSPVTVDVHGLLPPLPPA

Molecule `CC(=O)N[C@H]1[C@H](OCCCCCN)O[C@H](CO[C@@H]2O[C@@H](C)[C@@H](O[C@@H]3O[C@H](CO)[C@H](O)[C@H](O)[C@H]3O)[C@@H](O)[C@@H]2O)[C@@H](O)[C@@H]1O` [Galβ1,4Fucα1,6GlcNAcβOC5H10NH2] returned an equilibrium dissociation constant (Kd) of approximately 100 µM.
